Measured values reported in patent US7910624B1, “Compositions for the treatment of blood disorders” (The Trustees of Boston University, priority 1995, dated 2011).

Assays:
[1] = system: system A transport in K562 cells and nucleated erythroblasts from fetal liver; test: System A (neutral amino acid) transport, 3H-MAIB uptake; assay type: cell-based, human; settings: 1 hour incubation; FIG. 12
Experimental: Inhibition of nutrient uptake is undesirable for treatment of anemias. Methyl aminoisobutyric acid (MAIB) labeled with tritium (^3H) is normally taken up by system A amino acid transport. Cold (unlabeled) compounds were added to cultures containing ^3H-MAIB and incubated for 1 hour. Cells were harvested and the amount of ^3H taken up by cells was quantitated by scintillation counting.

[2] = system: anemic juvenile baboons; test: In vivo reticulocyte proliferation and globin expression in phlebotomized anemic baboons; set-up: species or system baboon
Experimental: Experiments were performed to determine if administration of the chemical compositions could induce fetal globin gene expression in an in vivo model similar to humans (S. P. Perrin et al., Brit. J. Haematol. 88:555-61, 1994). Briefly, chemicals were prepared as sterile pharmaceutical solutions in pH adjusted sterile water. A variety of chemical compositions were administered sequentially to some baboons. After administration of one compound, a wash-out period with no compound administration was maintained until reticulocytes returned to base line prior to administration of the next compound. This was done, at least partly, to compare the magnitude of response which occurred within the same individual animal to different compounds.
Briefly, juvenile female baboons (2 years old) were catheterized with arterial and venous catheters and phlebotomized gradually every day to maintain a moderate anemia of 7.0 to 7.5 grams hemoglobin/dl. Fetal reticulocytes, the newly produced red blood cells containing fetal globin, were assayed using a monoclonal antibody against fetal globin (HbF) as described by G. Dover et al. (Blood 67:735-38, 1986). Briefly, blood was stained with two antibodies, one specific for reticulocytes and another against fetal globin protein. The amount of antibody bound cells was determined by FACS analysis. Globin chain synthesis was assayed as described by J. B. Clegg et al. (J. Mol. Biol. 19:91-108, 1966). Briefly, reticulocytes were radio-labeled with ^3H-leucine which was incorporated in equal proportions into actively synthesized globin chains. After incubation in leucine-free media, cells were washed, and globin proteins were separated and purified by column chromatography. Radioactivity incorporated into each peak is compared and the ratios of gamma to gamma plus beta globin calculated. Each animal served as its own control with baseline monitoring assays performed for 4-6 weeks before any drug was administered. Phlebotomy was continued daily, so that peripheral HbF levels in the animals were not considered to be accurate over the short treatment time-frames and were not monitored. Safety monitoring was performed by frequent physical examinations, quantitation of food eaten, activity and frequent chemistry and hematology monitoring. Complete blood counts were assayed before, during and after treatment. Results presented were not adjusted to account for the daily phlebotomy.

[3] = system: proximal promoter of the gamma globin gene in K562 cells; test: Gamma globin promoter-neomycin (NEO) transfection, colony survival in G418; assay type: cell-based, human; settings: 1 mM, 8 weeks
Experimental: Gamma globin promoter-neomycin transfection experiments were performed to determine if compounds act by inducing an increase in activity from the proximal promoter of the gamma globin gene. Constructs containing 61 by of the proximal gamma globin promoter were linked to the reporter gene for neomycin phosphotransferase (NEO) and transfected into permissive K562 cells by electroporation. After 18 hours, transfected cells were passed at 10^3 cells per well into RPMI media containing G418 (neomycin), which kills all mammalian cells unless the gene for NEO is expressed. Phenoxyacetic acid and thiophenoxyacetic acid were added to some of the cells plated into the RPMI/G418 media at concentrations of 1 mM. Cultures were incubated for 8 weeks with media changes performed as needed. Colonies which survived and grew in the presence of G418 were scored and the number of such colonies was compared to those generated when the cells were plated into G418 media without the test compounds. No colonies in the 24 wells survived in the absence of compounds. There was a greater than 6-fold (>600%) increase in proportions of colonies surviving the presence of phenoxyacetic acid (6/24 wells) and a three-fold (300%) increase in survival in the presence of thiophenoxyacetic acid (3/24 wells).

[4] = system: erythroid progenitor cells cultured from human cord blood; test: Fetal globin expression in human cell cultures (3H-leucine labelled globin chains, densitometry); assay type: cell-based; settings: for Gamma Increase: Exp. B, 12-13 days
Experimental: Compositions were tested for activity in inducing fetal globin expression and protein production in erythroid progenitor cells cultured from human cord blood and analyzed as described by S. P. Perrine et al. (Blood 74: 454-60, 1989). Briefly, mononuclear cells were cultured in IMDM with 30% fetal calf serum and 2 units erythropoietin per ml to induce erythroid differentiation. Colonies were harvested on day 12-13, incubated with radio-labelled (^3H) leucine, and further incubated in leucine-free media, still in the presence of compounds, overnight. Globin composition in the erythroid cells was analyzed by laser densitometry of electrophoretically separated globin chains stained with Coomassie blue, and by autoradiography. Treated cells were incubated for 12-13 days (Table 2, Experiments A and B) or overnight (Table 2, Experiment C) in the presence of the indicated compounds and compared to untreated control cells cultured from the same human subject.

[5] = system: Human erythroleukemia cells; test: Fetal globin mRNA in erythroleukemia cells by primer extension; assay type: cell-based; settings: 1.0 mM, 4 days
Experimental: Compounds were tested for increased expression of the human globin genes in human erythroid cells. In addition, as the cell line being tested is a tumor cell line, the assay determines if differentiation, a growth inhibitory effect on cancer cells, is induced by the compounds tested. Human erythroleukemia cells were cultured in RPMI media with 10% fetal calf serum alone or with treatment with various compounds for 4 days. Globin mRNA was quantitated by primer extension analysis. Fetal globin mRNA was compared to the amount of fetal globin mRNA produced in untreated cells during the same culture period. The quantitation was expressed as a percent of alpha globin mRNA which was constant. Results are expressed proportional to α-globin mRNA (Table 3).

In the case of CC(=Cc1ccccc1)C(=O)O [α-methyl cinnamic acid], the “system A transport of amino acids (3H-MAIB uptake)” value [1] was “do not significantly alter”.

With CCCC(=O)OCC(COC(=O)CCC)OC(=O)CCC [tributyrin] the “gamma globin expression after treatment” value ([2]; intravenous 3 days, 500 to 750 mg/kg per day, from 0%) was “about 2.2 % of total non-alpha globin expression” and the “fetal reticulocytes after treatment” value ([2]; intravenous 3 days, 500 to 750 mg/kg per day, from 10%) was 14%.

O=C(O)CSc1ccccc1 [thiophenoxyacetic acid] was tested, and the “increase in proportions of colonies surviving G418” value [3] was 300% and the “increase in proportions of colonies surviving G418” value ([3]; no colonies without compounds) was “three-fold”.

In the case of CC(CO)C(N)=O (stereo not shown) [MHPP, 2 methyl-3-hydroxypropionamide, reference compound], the “Gamma Increase” value ([4]; 0.05 mM) was 2.0%, the “Gamma Increase” value ([4]; 1.0 mM) was −3.5% and the “expression of fetal globin (FIG. 4)” value ([4]; concentrations above 0.25 mM) was “decreased the expression of fetal globin”. The “expression of fetal globin (FIG. 4)” value ([4]; concentrations below 0.25 mM) was “increased fetal globin expression”.

With CCCC(=O)OCC(O)CO (stereo not shown) [MB, monobutyrin] the “induction of fetal globin mRNA in human cells” value [5] was “significantly increased”, the “Gamma/Alpha (fetal globin mRNA proportional to α-globin mRNA)” value ([5]; untreated 0.46) was 0.73 and the “Gamma Globin mRNA (increase ↑)” value ([5]; versus untreated) was 26% ↑. The “fetal reticulocytes above basal levels” value ([2]; intravenous each day, 4 days, 500 to 2,000 mg/kg) was 220% and the “fetal reticulocytes after treatment” value ([2]; intravenous each day, 4 days, 500 to 2,000 mg/kg, from 12%) was 27%.

For CC(Cc1ccccc1)C(=O)O (stereo not drawn) [α-methyl hydrocinnamic acid], the “rise of total hemoglobin” value ([2]; baboon, infused 8 h/day, 5 days: 500 mg/kg 2 days, 700 mg/kg 2 days, 1,000 mg/kg 1 day, over 3 days) was 1.5 grams/dl, the “red blood cell count after treatment” value ([2]; same regimen (500/700/1,000 mg/kg, 5 days), rose from 2.28) was 3.53 ×10^6 red blood cells per microliter and the “total number of reticulocytes after treatment” value ([2]; same regimen (500/700/1,000 mg/kg, 5 days), rose from 5.6%) was 11%. For the same compound, the “total hemoglobin after treatment” value ([2]; same regimen (500/700/1,000 mg/kg, 5 days), rose from 6.4) was 7.9 grams/dl, the “packed red blood cell volume after treatment” value ([2]; same regimen (500/700/1,000 mg/kg, 5 days), rose from 19.5%) was 31.2 % of total blood volume and the “platelet count after treatment” value ([2]; same regimen (500/700/1,000 mg/kg, 5 days), rose from 26.7) was 46.8 ×10^4 cells/μl. The “total fetal globin synthesis after treatment” value ([2]; second baboon, 500 mg/kg 8 h, 700 mg/kg 8 h, 700 mg/kg 2, 4 and 6 h, after 5 days, from 4.0%) was 10.8%, the “rise of total hemoglobin” value ([2]; second baboon, 500-700 mg/kg, 5 days) was 1.4 grams and the “red blood cell counts after treatment” value ([2]; second baboon, 500-700 mg/kg, 5 days, from 2.3×10^6) was 2.82×10^6. For the same compound, the “total hemoglobin after treatment” value ([2]; second baboon, 500-700 mg/kg, 5 days, from 4.6) was 6.0 g/dL, the “packed red blood cell volume after treatment” value ([2]; second baboon, 500-700 mg/kg, 5 days, from 14.5%) was 20.2% and the “white blood cell counts, maximum” value ([2]; second baboon, 500-700 mg/kg, 5 days, from 8,700) was 14,300. The “platelet counts, high” value ([2]; second baboon, 500-700 mg/kg, 5 days, from 328,000) was 486,000, the adverse effects ([2]; third baboon, 5 days) was “No adverse affects were observed” and the “fetal globin protein synthesis after treatment” value ([2]; third baboon, after 5 days, from 0%) was 6.2 % of non-alpha globin. The “fetal hemoglobin producing reticulocytes after treatment” value ([2]; third baboon, same dose, after 5 days (FIG. 8), from 0%) was 10% and the “system A transport of amino acids (3H-MAIB uptake)” value [1] was “caused no significant inhibition and actually increased uptake of nutrients into cells”.
